In one data set the test system is FLS. Description: MTT assay. It is filed as cell-based. As to conditions: 24 hours, concentrations of the invasion studies. The procedure: 4×10^4 FLS per well were plated in triplicate in 96-well plates in 100 μl of complete media. Cells were allowed to adhere for 24 hours. Media was then changed and O1821, LER13, or vehicle was added at the same concentrations used for the invasion studies. After 24 hours (same duration of the invasion experiments) viable cells were determined by the colorimetric MTT kit (Millipore) according to the manufacturer's instructions.

A further data set deals with glioblastoma cell line. The data set can be described thus: Cancer cell invasion, glioblastoma. It counts as cell-based.
The subject of a further data set is FLS from RA patients. The data set can be described thus: Matrigel transwell invasion assay, RA FLS. It is filed as cell-based, human. The text has this: Human synovial tissues were obtained from RA patients undergoing elective orthopedic surgery. All patients met the American College of Rheumatology criteria for RA (Arnett et al, “The American Rheumatism Association 1987 Revised Criteria for the Classification of Rheumatoid Arthritis,” Arthritis Rheum. 31 (3):315-324 (1988), which is hereby incorporated by reference in its entirety). Informed consent was obtained from all participating subjects under an Institutional Review Board-approved protocol through the Feinstein Institute's Tissue Donation Program.
The in vitro invasiveness of FLS was assayed in a transwell system using Matrigel-coated inserts (BD Biosciences, Franklin Lakes, N.J.), as previously described (Tolboom et al., “Invasiveness of Fibroblast-Like Synoviocytes is an Individual Patient Characteristic Associated with the Rate of Joint Destruction in Patients with Rheumatoid Arthritis,” Arthritis Rheum. 52 (7):1999-2002 (2005); Laragione et al., “The Arthritis Severity Locus Cia5d is a Novel Genetic Regulator of the Invasive Properties of Synovial Fibroblasts,” Arthritis Rheum. 58 (8):2296-2306 (2008), which are hereby incorporated by reference in their entirety). […] The opposite side of the insert was stained with Crystal Violet (Sigma) and the total number of cells that invaded through Matrigel counted at 100× magnification. […]

Data set [1] deals with DBA1/J mice with collagen-induced arthritis. Description: Collagen induced arthritis (CIA). It is filed as in vivo, mouse. An excerpt: CIA was induced in 8-week-old male DBA1/J mice (Jackson Laboratories) using a standard protocol (Courtenay et al., “Immunisation Against Heterologous Type II Collagen Induces Arthritis in Mice,” Nature 283 (5748):666-668 (1980); Nagler-Anderson et al., “Suppression of Type II Collagen-Induced Arthritis by Intragastric Administration of Soluble Type II Collagen,” Proc. Natl. Acad. Sci. U.S.A. 83 (19):7443-7446 (1986), which are hereby incorporated by reference in their entirety). Briefly, bovine type II collagen (Chondrex, Redmond, Wash.) was dissolved overnight in acetic acid 0.1 N and then homogenized at 1:1 with Complete Freund's Adjuvant (CFA, Difco, Detroit, Mich.). Anesthetized mice were injected intradermally with 100 μg of type II collagen emulsified in CFA in the tail. The new Trpv2 agonist LER13 (10 mg/Kg) or control vehicle (PBS 50%, PEG300 40%, PG 5%, PS80 5%) was started on day 10 (D10) and administered intra-peritoneally every-other-day (from D10 until day 55). On day 21 (D21), mice received a booster injection of 100 μg of type II collagen in incomplete Freund's adjuvant. Clinical signs of arthritis were evident on day 24 (D24).
Arthritis severity in CIA mice was scored using a modified scoring system based on Jirholt et al., “Genetic Linkage Analysis of Collagen-Induced Arthritis in the Mouse,” Eur. J. Immunol. 28 (10):3321-3328 (1998), which is hereby incorporated by reference in its entirety. Briefly, the modified scoring system ranged from 0-16 per mouse per day and included a functional component of disease severity (non-weight bearing) in the maximum score of 4 per paw. The arthritis severity index (ASI), which is the sum of all scores obtained during the observation period, was used to compare treatment groups as it provides a comprehensive assessment of arthritis severity over time, and correlates with histologic damage (Brenner et al., “The Non-MHC Quantitative Trait Locus Cia10 Contains a Major Arthritis Gene and Regulates Disease Severity, Pannus Formation and Joint Damage,” Arthritis Rheum. 52 (1):322-332 (2005); Brenner et al., “The Non-MHC Quantitative Trait Locus Cia5 Contains Three Major Arthritis Genes that Differentially Regulate Disease Severity, Pannus Formation, and Joint Damage in Collagen- and Pristane-Induced Arthritis,” J. Immunol. 174 (12):7894-7903 (2005), which are hereby incorporated by reference in their entirety).

The mark [2] stands for this setting: 10 mg/Kg IP every-other-day from D10, scoring to D76.

The structures appear in SMILES notation. “And” between values parts separate entries of the source, which are not always exact repeats. Equal values may be shown once.

Consider `C=C(C)[C@@H]1CCC(C)=C[C@H]1c1c(O)cc(C)cc1O` [Compound O1821], for which the “Toxicity to FLS (cell mortality)” value in the data set with FLS is given as “not toxic”. Moreover, the Cell invasion result in the data set with glioblastoma cell line is on record as “significantly reduce cell invasion”. In addition, the “Reduction of RA FLS invasion” value was found to be 90% in the data set on FLS from RA patients (20 μM) and 99.4% in the data set on FLS from RA patients (50 μM).

`C#Cc1cc(O)c(C2C=C(C)CCC2C(=C)C)c(O)c1C1C=C(C)CCC1C(=C)C` [Compound 13, (1R,2″R,2R,2″S)-6′-ethynyl-5,5″-dimethyl-2,2″-di(prop-1-en-2-yl)-1,1″,2,2″,3,3″,4,4″-octahydro-[1,1′:3′,1″-terphenyl]-2′,4′-diol]: in data set [1] (10 mg/Kg IP every-other-day), the “Maximum arthritis severity score per mouse, mean±SD” value is recorded as 7±4.2; the “Reduction of maximum arthritis severity scores per mouse vs vehicle” value is ~50% and 50%. In addition, in data set [1] (setting [2]), the “Arthritis severity index (ASI), mean±S.D.” value is recorded as 40.7±36.8 and the “Reduction in mean cumulative arthritis scores vs vehicle” value was 50%. The “Arthritis severity (CIA)” value in data set [1] (collagen-induced arthritis) was “Protective in CIA”. The “Number of joints with the maximum score” value in data set [1] (day 63) came out at 5. For the same molecule, in data set [1] (day 70), the “Number of joints with the maximum score” value is given as 1.
